Legend:
[1] = target: T1, HCV polymerase 1B (Δ21 NS5B) (Hepatitis C virus genotype 1b, UniProt P26663); experiment: HCV Polymerase Inhibition Assay (1b); assay type: biochemical
T1 construct: 20 to 50 nM Δ21 NS5B
Description: (§1) Reaction volume was 50 μL. The reaction was terminated by the addition of 1 volume of 4 mM spermine in 10 mM Tris-Cl pH 8.0, 1 mM EDTA. After incubation for at least 15 minutes at room temperature, the precipitated RNA was captured by filtering through a GF/B filter (Millipore) in a 96 well format. The filter plate was washed three times with 200 μL, each of 2 mM spermine, 10 mM Tris-Cl pH 8.0, 1 mM EDTA, and 2 times with ethanol. After air-drying, 30 μL, of Microscint 20 scintillation cocktail (Packard) was added to each well, and the retained cpm were determined by scintillation counting. […] Retained cpm were plotted vs. inhibitor concentration and fit to equation 1 using non-linear regression (ref. 1) to obtain the IC50 values: Retained cpm=A[sqrt{(IC50+It−Et)^2+4*IC50*Et}−(IC50+It−Et)]
(§2) Ref. Morrison, J. F. and S. R. Stone. 1985. Approaches to the study and analysis of the inhibition of enzymes by slow- and tight-binding inhibitors. Comments Mol. Cell. Biophys. 2: 347-368.
(§3) The sequence of the template RNA used was: 5′-[…] […] […] […] […] […] […] […] […] […] […] […] […] […] […] […] […]-3′ (SEQ ID NO: 1)

[2] = target: T2, HCV polymerase 1A (Δ21 NS5B) (Hepatitis C virus genotype 1a, UniProt P27958); experiment: HCV Polymerase Inhibition Assay (1a); assay type: biochemical
T2 construct: 20 to 50 nM Δ21 NS5B
T2 sequence (P27958 2421-2990, stated change not applied): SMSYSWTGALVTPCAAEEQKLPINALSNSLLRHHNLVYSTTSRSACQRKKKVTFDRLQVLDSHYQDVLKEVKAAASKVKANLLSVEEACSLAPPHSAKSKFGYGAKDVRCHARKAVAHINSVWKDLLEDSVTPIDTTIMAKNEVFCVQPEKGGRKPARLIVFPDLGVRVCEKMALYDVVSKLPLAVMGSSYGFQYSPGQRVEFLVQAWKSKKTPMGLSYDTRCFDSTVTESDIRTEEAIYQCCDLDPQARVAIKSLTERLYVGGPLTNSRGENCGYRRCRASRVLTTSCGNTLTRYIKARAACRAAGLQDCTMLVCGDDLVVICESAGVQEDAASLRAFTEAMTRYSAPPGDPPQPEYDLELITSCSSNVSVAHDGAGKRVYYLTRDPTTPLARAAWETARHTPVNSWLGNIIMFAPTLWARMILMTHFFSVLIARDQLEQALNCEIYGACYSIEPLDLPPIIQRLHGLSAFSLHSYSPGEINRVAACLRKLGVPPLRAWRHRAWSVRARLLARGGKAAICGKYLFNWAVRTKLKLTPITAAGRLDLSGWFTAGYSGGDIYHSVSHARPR
Description: as §1, §2, §3

[3] = test system: genotype 1a-H77 subgenomic replicon cell line; experiment: HCV Polymerase Replicon Assay (genotype 1a-H77, luciferase reporter); assay type: cell-based; details: Hepatitis C virus, 72 h, 1a-H77 replicon, three days
[4] = test system: genotype 1b-Con1 subgenomic replicon cell line; experiment: HCV Polymerase Replicon Assay (genotype 1b-Con1, luciferase reporter); assay type: cell-based; details: Hepatitis C virus, 72 h, 1b-Con1 replicon, three days

T1 sequence (P26663 2420-2989, stated change not applied): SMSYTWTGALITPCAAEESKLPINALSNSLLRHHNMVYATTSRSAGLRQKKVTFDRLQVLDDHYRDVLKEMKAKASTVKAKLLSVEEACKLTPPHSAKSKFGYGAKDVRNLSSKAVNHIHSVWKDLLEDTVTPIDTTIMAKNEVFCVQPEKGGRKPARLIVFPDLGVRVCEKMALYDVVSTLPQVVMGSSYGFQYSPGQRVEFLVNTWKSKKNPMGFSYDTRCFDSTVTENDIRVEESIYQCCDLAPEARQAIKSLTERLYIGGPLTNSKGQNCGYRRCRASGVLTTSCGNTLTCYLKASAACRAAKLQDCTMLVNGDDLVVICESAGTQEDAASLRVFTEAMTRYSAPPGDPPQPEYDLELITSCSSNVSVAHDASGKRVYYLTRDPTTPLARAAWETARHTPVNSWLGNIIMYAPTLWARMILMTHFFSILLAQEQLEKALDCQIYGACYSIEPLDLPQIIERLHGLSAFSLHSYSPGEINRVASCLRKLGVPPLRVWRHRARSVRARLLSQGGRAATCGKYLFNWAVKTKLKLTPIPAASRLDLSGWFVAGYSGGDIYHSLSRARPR

Q: How did the IC50 [1] turn out when `COc1c(-c2ccc3cc(NS(C)(=O)=O)ccc3c2)cc(NC(=O)CNC(=O)OC(C)(C)C)cc1C(C)(C)C` [compound 19, tert-butyl 2-(3-tert-butyl-4-methoxy-5-(6-(methylsulfonamido)naphthalen-2-yl)phenylamino)-2-oxoethylcarbamate] was run?
A: Its IC50 is > 1000 nM.

Q: And the IC50 [2]?
A: The IC50 was > 1000 nM.

Q: For `COc1c(Br)cc(-c2c[nH]c(=O)[nH]c2=O)cc1C(C)(C)C` [compound 5, 5-(3-bromo-5-tert-butyl-4-methoxyphenyl)pyrimidine-2,4(1H,3H)-dione], which EC50 [3] is on record?
A: The EC50 was > 1000 nM.

Q: What about the EC50 [4] of the same molecule?
A: Its EC50 is > 1000 nM.

Q: And the IC50 [1]?
A: Its IC50 is > 1000 nM.

Q: And the IC50 [2]?
A: The IC50 was > 1000 nM.

Q: With `COc1c(-c2ccc3cc(NS(C)(=O)=O)ccc3c2)cc(NC(=O)NC(C)C)cc1C(C)(C)C` [compound 18, N-(6-(3-tert-butyl-5-(3-isopropylureido)-2-methoxyphenyl)naphthalen-2-yl)methanesulfonamide] as the molecule, how does the IC50 [1] read?
A: The IC50 was > 1000 nM.

Q: What about the IC50 [2] of the same molecule?
A: Its IC50 is > 1000 nM.

Q: `COc1c(/C=C/c2ccc(NS(C)(=O)=O)cc2)cc(-c2c[nH]c(=O)[nH]c2=O)cc1C(C)(C)C` [compound 4, (E)-N-(4-(3-tert-butyl-5-(2,4-dioxo-1,2,3,4-tetrahydropyrimidin-5-yl)-2-methoxystyryl)phenyl)methanesulfonamide] was tested. Which EC50 [3] did it give?
A: The EC50 was ≤ 10 nM.

Q: What about the EC50 [4] of the same molecule?
A: The EC50 was ≤ 10 nM.

Q: With `COc1c(-c2c[nH]c(=O)[nH]c2=O)cc(-c2ccc3cc(NS(C)(=O)=O)ccc3c2)cc1C(C)(C)C` [compound 1, N-(6-(3-tert-butyl-5-(2,4-dioxo-1,2,3,4-tetrahydropyrimidin-5-yl)-4-methoxyphenyl)naphthalen-2-yl)methanesulfonamide] as the molecule, how does the IC50 [1] read?
A: Its IC50 is 100 to 1000 nM.

Q: And the IC50 [2]?
A: The IC50 was 100 to 1000 nM.

Q: What does the source list for `COc1c(Br)cc(-c2c[nH]c(=O)[nH]c2=O)cc1C(F)(F)F` [compound 48, 5-(3-bromo-4-methoxy-5-(trifluoromethyl)phenyl)pyrimidine-2,4(1H,3H)-dione]?
A: EC50 [3]: > 1000 nM; EC50 [4]: > 1000 nM; IC50 [1]: > 1000 nM; IC50 [2]: > 1000 nM

Q: `COc1c(-c2ccc3cc(NS(C)(=O)=O)ccc3c2)cc(C(=O)c2ccccc2)cc1C(C)(C)C` [compound 31, N-(6-(5-benzoyl-3-tert-butyl-2-methoxyphenyl)naphthalen-2-yl)methanesulfonamide] was tested. Which IC50 [1] did it give?
A: Its IC50 is > 1000 nM.

Q: What about the IC50 [2] of the same molecule?
A: The IC50 was > 1000 nM.

Q: Which IC50 [1] does the source give for `COc1c(/C=C/c2ccc(NS(C)(=O)=O)cc2)cc(C(=O)c2ccccc2)cc1C(C)(C)C` [compound 32, (E)-N-(4-(5-benzoyl-3-tert-butyl-2-methoxystyryl)phenyl)methanesulfonamide] here?
A: Its IC50 is > 1000 nM.

Q: What about the IC50 [2] of the same molecule?
A: Its IC50 is > 1000 nM.

Q: How did the EC50 [4] turn out when `COc1c(-c2ccc3cc(NS(C)(=O)=O)ccc3c2)cc(-c2ccc(F)cc2F)cc1C(C)(C)C` [compound 11, N-(6-(5-tert-butyl-2′,4′-difluoro-4-methoxybiphenyl-3-yl)naphthalen-2-yl)methanesulfonamide] was run?
A: The EC50 was > 1000 nM.

Q: What about the IC50 [1] of the same molecule?
A: The IC50 was > 1000 nM.

Q: What about the IC50 [2] of the same molecule?
A: Its IC50 is > 1000 nM.

Q: Which IC50 [1] does the source give for `COc1c(-c2ccc3cc(NS(C)(=O)=O)ccc3c2)cc(NC(=O)CN)cc1C(C)(C)C` [compound 20, 2-amino-N-(3-tert-butyl-4-methoxy-5-(6-(methylsulfonamido)naphthalen-2-yl)phenyl)acetamide] here?
A: Its IC50 is > 1000 nM.

Q: And the IC50 [2]?
A: Its IC50 is > 1000 nM.

Q: What does the source list for `COc1c(-c2ccc3cc(NS(C)(=O)=O)ccc3c2)cc(NC(=O)CCN)cc1C(C)(C)C` [compound 24, 3-amino-N-(3-tert-butyl-4-methoxy-5-(6-(methylsulfonamido)naphthalen-2-yl)phenyl)propanamide]?
A: IC50 [1]: > 1000 nM; IC50 [2]: > 1000 nM

Q: `COc1c(-c2ccc3cc(NS(C)(=O)=O)ccc3c2)cc(NC(=O)Nc2ccccc2)cc1C(C)(C)C` [compound 17, N-(6-(3-tert-butyl-2-methoxy-5-(3-phenylureido)phenyl)naphthalen-2-yl)methanesulfonamide] was tested. Which IC50 [1] did it give?
A: Its IC50 is > 1000 nM.

Q: What about the IC50 [2] of the same molecule?
A: Its IC50 is > 1000 nM.
